Experimental data taken from US9730442B2, “Use of 4-phenylbutyric acid for improving the tolerance of plants to harmful biological organisms” (INSTITUT DE RECHERCHE POUR LE DÉVELOPPEMENT (IRD), priority 2012, dated 2017).

Experiments:
[1] = system: genes encoding BiP1,2, BiP3, CNX1 and CRT1; test: Real-time quantitative PCR of endoplasmic reticulum chaperone genes in A. thaliana leaves; format: in vivo, Arabidopsis thaliana; conditions: 44 hours post-inoculation, FIG. 3
Experimental: The 4-PBA solutions used in the experiments described hereinafter were prepared as described in Example 1.
The infection with Pst (avirulent strain DC3000::AvrRpt2) was carried out under the same conditions as those described above. An additional condition was added, corresponding to the infiltration of a solution of 4-PBA (1 mM) alone into the A. thaliana leaves.
Samples were harvested 44 hours post-inoculation, frozen in liquid nitrogen and then stored at −80° C. until total RNA extraction. The total RNA was reverse transcribed so as to synthesize cDNAs. These cDNAs were used as a template in real-time quantitative PCR experiments. Primers specific for the genes encoding the binding proteins (BiP1,2 and BiP3), calnexin 1 (CNX1) and calreticulin 1 (CRT1) were designed so as to measure the expression of these genes. The expression of the genes of interest was standardized with respect to that of an actin gene. These experiments were repeated once, including one as a duplicate per experiment.

[2] = system: nonhost hypersensitive cell death induced by Pseudomonas syringae pv. tomato; test: Nonhost hypersensitive cell death in tobacco interacting with Pseudomonas syringae pv. tomato (data not presented); format: in vivo
Experimental: (§1) The effect of 4-PBA on cell death of hypersensitive nature was tested on several pathosystems, including those presented in FIGS. 1 & 2, namely Gossypium hirsutum/Xanthomonas campestris pv. malvacearum and Arabidopsis thaliana/Pseudomonas syringae. pv. tomato, respectively. […] The latter data concern hypersensitive cell death induced in tobacco by an elicitor of fungal origin, cryptogein, and nonhost hypersensitive cell death in tobacco interacting with the bacterium Pseudomonas syringae pv. tomato.

Xcm race 20 = test: In vitro bacterial growth in King B liquid medium, absorbance at 600 nm; format: cell-based, Xanthomonas campestris pv. malvacearum; conditions: 4-PBA 1 mM in King B liquid medium; approximately 16 hours, 30° C.; FIG. 5
Experimental: The effect of 4-PBA on phytopathogenic bacteria was tested in vitro on the bacterial strain Xcm race 20. The strain was cultured in King B liquid medium in the presence or absence of 4-PBA. The 4-PBA solution was prepared extemporaneously as described above. The nutritive medium was inoculated either using glycerol stocks, or using bacterial colonies freshly cultured in solid medium. The nutritive medium was then supplemented with the 4-PBA solution in order to achieve a final concentration of 1 mM (final volume of 10 ml). […] The tubes were then incubated overnight (approximately 16 hours) with gentle shaking at 30° C. The bacterial growth was then measured by nephelometry by measuring the absorbance of an aliquot of the bacterial cultures at 600 nm. This experiment was repeated three times. Each experiment contained one technical triplicate per condition, i.e. condition with 4-PBA and condition without 4-PBA.

[3] = system: hypersensitive cell death induced by Pseudomonas syringae pv. tomato (Pst, avirulent strain DC3000::AvrRpt2); test: Hypersensitive cell death induced by Pst infiltration into Arabidopsis thaliana leaves; format: in vivo; conditions: 4-PBA 1 mM co-infiltrated with Pst DC3000::AvrRpt2 at 10^7 cfu/ml; six days post-inoculation; FIG. 2
Experimental: (§2) A stock solution of 4-PBA (10 mM) was prepared extemporaneously by dissolving powder in sterile distilled water. In order to allow complete dissolution of the 4-PBA, the solution was heated at 50° C. for 10 minutes.
The bacteria (Pst, avirulent strain DC3000::AvrRpt2) were cultured overnight in a rich nutritive medium (King B). After sedimentation by centrifugation, said bacteria were washed with sterile distilled water before being resuspended at a concentration of 10^7 cfu/ml. The resuspending of the cells is carried out either in sterile distilled water, or in a solution of 4-PBA at 1 mM. These suspensions were then infiltrated into the leaves of the Arabidopsis thaliana rosette. The macroscopic symptoms were monitored over a period of six days post-inoculation.

[4] = system: hypersensitive cell death induced by Xanthomonas campestris pv. malvacearum (Xcm, race 18); test: Hypersensitive cell death induced by Xcm infiltration into cotton plant cotyledons; format: in vivo, Gossypium hirsutum; conditions: 4-PBA 2 mM co-infiltrated with Xcm race 18 at 10^8 cfu/ml; four days after inoculation; FIG. 1
Experimental: as §2
The Xanthomonas campestris pv. malvacearum bacteria (Xcm, race 18) were cultured overnight in a rich nutritive medium (King B). After sedimentation by centrifugation, said bacteria were washed with sterile distilled water before being resuspended at a concentration of 10^8 cfu/ml. The resuspending of the cells is carried out either in sterile distilled water, or in a solution of 4-PBA at 2 mM. These two types of suspensions were infiltrated into cotton plant (Gossypium hirsutum) cotyledons on each side of the central vein for comparison.

[5] = system: tobacco leaves (plant cells); test: Concentration range infiltrated into tobacco leaves, macroscopic symptoms; format: in vivo, Nicotiana tabacum; conditions: 4-PBA at 0.5, 1, 2.5 and 5 mM infiltrated into tobacco leaves; 48 hours post-infiltration; FIG. 4A
Experimental: (§3) The concentration range presented in FIG. 4A was produced by infiltration into tobacco leaves of 4-PBA solutions at 0.5, 1, 2.5 and 5 mM. The macroscopic symptoms were evaluated 48 hours post-infiltration. Samples were also harvested at the times indicated in FIG. 4B and treated as described above so as to be analyzed by real-time quantitative PCR. Primers specific for all of the nine genes encoding BiP proteins were designed for this purpose.

[6] = system: hypersensitive cell death induced by cryptogein; test: Hypersensitive cell death induced in tobacco by cryptogein (data not shown); format: in vivo
Experimental: as §1

[7] = system: genes encoding BiP proteins; test: Real-time quantitative PCR of BiP genes in tobacco leaves; format: in vivo, Nicotiana tabacum; conditions: 4-PBA infiltrated into tobacco leaves; FIG. 4B
Experimental: as §3

O=C(O)CCCc1ccccc1 [4-PBA, 4-phenylbutyric acid]
expression of genes encoding chaperone proteins (BiP1,2, BiP3, CNX1, CRT1) ([1]; 4-PBA 1 mM infiltrated alone, standardized to actin): significantly induce the expression of genes encoding chaperone proteins
expression of BiP1,2, CNX1 and CRT1 genes, 4-PBA combined with Pst infection ([1]; 4-PBA 1 mM plus Pst): synergistic effect
nonhost hypersensitive cell death in tobacco with Pseudomonas syringae pv. tomato [2]: confirm the anti-cell death properties
bacterial growth (absorbance at 600 nm) (Xcm race 20): strongly inhibits the growth
hypersensitive symptoms (macroscopic) in A. thaliana leaves [3]: capable of abolishing the hypersensitive symptoms
hypersensitive symptoms (macroscopic) in cotton plant cotyledonary leaves [4]: strongly represses the hypersensitive symptoms
toxicity to plant cells (macroscopic symptoms) [5]: not toxic to the plant cells
hypersensitive cell death induced by cryptogein in tobacco [6]: repress hypersensitive cell death
BiP gene expression in tobacco [7]: capable of inducing BiP gene expression in tobacco
